The subject of the data set is WT mice. The data set is described as follows: CLP-induced sepsis, 10-day survival. The class given is in vivo, mouse. The method, then:
FIG. 6A-6M: MOP3 ameliorates inflammation, lung injury, and improves survival in sepsis. WT mice subjected to CLP-induced sepsis with MOP3 treatment (10 μg/kg) or vehicle (volume-equivalent). After 20 hours, blood and lung tissue collected for respective analyses. (A-C) Serum was analyzed for systemic eCIRP, IL-6, and TNFα levels by ELISA. (D-F) Serum was analyzed for ALT, AST, and LDH by calorimetric assays. (G-I) Lung tissue was frozen and mRNA expression of IL-6, TNFα, and IL-1β was measured by PCR and MPO by calorimetric assay. (J) Lung tissue was frozen and analyzed for MPO levels by calorimetric assay. (K) Lungs were sectioned, imaged for histologic injury by H&E staining, and performed lung injury scoring. (L) Sectioned lungs were stained for TUNEL positive cells and cell counts were quantified. […] Data are expressed as mean±SEM and compared by one-way ANOVA and SNK test. *p<0.05 vs. sham, #p<0.05 vs. CLP vehicle. (M) WT mice subjected to CLP-induced sepsis with MOP3 treatment (10 μg/kg) or vehicle (volume equivalent) and monitored for 10 days for humane endpoints, and differences in survival were determined (N=17 per group). *p<0.05 vs. CLP vehicle. […]
Data represented in the figures are expressed as mean±SEM. […] Survival rates were analyzed by the Kaplan-Meier estimator and compared using a log-rank test. Significant differences between groups were determined by Tukey's method. […]

SMILES strings stand for the structures. Residues, ends and D or L forms follow the SMILES beside them.

As for `CC(C)C[C@H](NC(=O)[C@H](CC(N)=O)NC(=O)[C@H](Cc1c[nH]c2ccccc12)NC(=O)[C@@H](NC(=O)[C@H](CCCCN)NC(=O)[C@H](Cc1ccc(O)cc1)NC(=O)[C@H](CO)NC(=O)[C@H](CO)NC(=O)[C@H](CO)NC(=O)[C@H](CC(=O)O)NC(=O)CNC(=O)[C@@H](N)CCCNC(=N)N)[C@@H](C)O)C(=O)N[C@@H](CCCNC(=N)N)C(=O)N[C@@H](C)C(=O)N[C@@H](Cc1ccccc1)C(=O)NCC(=O)N[C@@H](Cc1c[nH]c2ccccc12)C(=O)N[C@@H](Cc1ccc(O)cc1)C(=O)O` [MOP3, RGDSSSYKTWNLRAFGWY] (H-RGDSSSYKTWNLRAFGWY-OH; N-terminus and C-terminus assumed), the mortality (CLP, one-time MOP3 dose, monitored 10 days, N=17 per group) was found to be 17.6%. Further, the observed phenotypic effects result (septic mice, no off-target, pharmacokinetic or toxicity studies performed) was “lack of observed phenotypic effects”.

The term mortality denotes the percentage killed. A low value points to more survivors.

For the origin of these results see patent US20240197828A1, “Chimeric molecule to treat sepsis and other inflammatory conditions” (THE FEINSTEIN INSTITUTES FOR MEDICAL RESEARCH, priority 2022, published 2024).
